This is an account of results in paper PMC13703928, “Substrate‐Dependent Crosslinking by the Cytochrome P450 From Aminopyruvatide Biosynthesis” (Angewandte Chemie (International Ed. in English), 2026).

Test [1] addresses T1, cathepsin B (Homo sapiens, UniProt P07858).
T1 construct: purchased Athens research and technology 16-12-030102
The experiment in a line: biochemical. The conditions noted are these: 192.4 pM enzyme, 20 µM Z-RR-4MBNA; for Inhibition of cathepsin B at 25 µM (in words): pH 6.0, 30 °C.

The subject of test [2] is main protease from SARS CoV‐2 (M^pro). Type of test: biochemical.
In test [3] the target is T2, papain (Carica papaya, UniProt P00784).
T2 construct: purchased Sigma P4762-25MG
T2 sequence (P00784 134-345): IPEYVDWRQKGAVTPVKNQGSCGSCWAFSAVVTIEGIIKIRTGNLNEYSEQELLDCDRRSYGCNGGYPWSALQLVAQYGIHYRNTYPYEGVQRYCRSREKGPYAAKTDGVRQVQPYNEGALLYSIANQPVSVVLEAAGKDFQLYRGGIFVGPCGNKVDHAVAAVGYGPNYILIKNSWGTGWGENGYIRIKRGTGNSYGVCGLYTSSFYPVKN
Put plainly: biochemical. The conditions noted are these: 200 pM enzyme, 10 µM Z-FR-AFC; for Inhibition of papain at 25 µM (in words): pH 7, 30 °C; for IC50: 50 mM sodium phosphate pH 7, 1 mM EDTA, 2 mM DTT, 30 °C, 15 min preincubation at room temperature, fluorescence, meaning of ± and n not given, read-out: IC50, inhibition of papain.

The subject of test [4] is chymotrypsin. The test is classed as biochemical. The conditions noted are these: 1 nM enzyme, 10 µM Suc-AAPF-AMC, Tris HCl pH 8, 30 °C.
Test [5] has as its target T3, cathepsin L (Homo sapiens, UniProt P07711).
T3 construct: purchased Athens research and technology 16-12-030112
The experiment in a line: biochemical. Conditions: 200 pM enzyme, 10 µM Z-FR-AFC; for Inhibition of cathepsin L at 25 µM (in words): pH 5.5, 30 °C.

For test [6], the system named is trypsin. Type of test: biochemical. Conditions: 500 pM enzyme, 10 µM Boc-QAR-AMC, Tris HCl pH 8, 30 °C.
Test [7] relates to proteases (trypsin, chymotrypsin, papain, cathepsin B, cathepsin L, ACE, M^pro). The test is classed as biochemical.
In test [8] the target is T4, angiotensin I‐converting enzyme (ACE) (Oryctolagus cuniculus, UniProt P12822).
T4 construct: purchased Sigma A6778
T4 sequence (P12822 34-1310): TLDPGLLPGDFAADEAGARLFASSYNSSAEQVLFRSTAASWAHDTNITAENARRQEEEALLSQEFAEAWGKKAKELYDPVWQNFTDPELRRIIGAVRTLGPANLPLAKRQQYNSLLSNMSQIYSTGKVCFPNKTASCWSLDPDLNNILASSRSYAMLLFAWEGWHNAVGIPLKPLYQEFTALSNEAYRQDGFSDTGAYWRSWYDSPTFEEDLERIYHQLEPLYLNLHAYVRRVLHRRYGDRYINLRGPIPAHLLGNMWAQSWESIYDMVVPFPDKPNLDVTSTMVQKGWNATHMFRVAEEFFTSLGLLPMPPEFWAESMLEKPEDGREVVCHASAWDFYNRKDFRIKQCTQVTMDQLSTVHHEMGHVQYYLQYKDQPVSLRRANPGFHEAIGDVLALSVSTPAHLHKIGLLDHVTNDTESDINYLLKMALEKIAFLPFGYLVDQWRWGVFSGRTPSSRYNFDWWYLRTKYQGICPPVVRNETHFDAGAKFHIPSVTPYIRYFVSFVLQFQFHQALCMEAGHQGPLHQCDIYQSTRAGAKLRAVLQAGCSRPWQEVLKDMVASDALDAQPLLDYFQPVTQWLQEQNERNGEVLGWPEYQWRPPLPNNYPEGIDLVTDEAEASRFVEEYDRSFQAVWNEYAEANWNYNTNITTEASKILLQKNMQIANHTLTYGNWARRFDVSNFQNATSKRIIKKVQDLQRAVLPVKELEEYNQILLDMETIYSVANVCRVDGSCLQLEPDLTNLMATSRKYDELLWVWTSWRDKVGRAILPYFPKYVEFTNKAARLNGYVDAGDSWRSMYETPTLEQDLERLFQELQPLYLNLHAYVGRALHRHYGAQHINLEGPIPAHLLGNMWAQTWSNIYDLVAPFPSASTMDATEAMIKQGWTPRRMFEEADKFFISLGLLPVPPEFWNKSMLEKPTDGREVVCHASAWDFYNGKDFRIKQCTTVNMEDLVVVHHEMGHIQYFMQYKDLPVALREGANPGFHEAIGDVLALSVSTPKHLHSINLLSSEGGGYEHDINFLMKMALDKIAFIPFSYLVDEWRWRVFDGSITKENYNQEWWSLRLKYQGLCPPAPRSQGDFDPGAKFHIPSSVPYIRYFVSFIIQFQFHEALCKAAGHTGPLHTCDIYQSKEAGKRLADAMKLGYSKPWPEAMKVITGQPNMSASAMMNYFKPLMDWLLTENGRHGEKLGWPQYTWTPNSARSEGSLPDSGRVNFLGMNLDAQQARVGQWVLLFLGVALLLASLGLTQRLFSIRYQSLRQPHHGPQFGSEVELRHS
Type of test: biochemical. The conditions noted are these: 0.4 mU/mL enzyme, 10 µM Abz-FRK(Dnp)-P-OH, pH 7.5, 37 °C.

In test [9] the test system is ApyO. The test is classed as biochemical, Burkholderia thailandensis E264. Conditions: pH 7.5.
Test [10] has as its system ApyO. Type of test: biochemical, Burkholderia thailandensis E264. Conditions: pH 7.5. This is another data set of the same source.

Several values for one entry are separate records, joined by “and”; a condition that tells them apart may be missing. Equal values may be shown once. Entries after “also recorded” stand apart in the source; their conditions may differ.

T3 sequence (P07711 114-333): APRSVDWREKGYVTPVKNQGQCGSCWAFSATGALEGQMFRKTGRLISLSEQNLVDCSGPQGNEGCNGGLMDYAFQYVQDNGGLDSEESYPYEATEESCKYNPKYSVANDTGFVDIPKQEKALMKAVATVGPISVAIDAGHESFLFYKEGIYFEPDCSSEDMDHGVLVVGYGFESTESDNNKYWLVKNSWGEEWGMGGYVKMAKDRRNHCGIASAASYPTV

For “GYYYD (sidechain bridge or staple) [L7Y isomer-1]”, in test [1], the “Inhibition of cathepsin B at 25 µM (in words)” value (from here on “Inhibition of cathepsin B”) is “No inhibition was observed”. Besides, the “Inhibition of SARS CoV-2 Mpro at 25 µM (in words)” value in test [2] is recorded as “No inhibition was observed”. Further, the “Inhibition of papain at 25 µM (in words)” value in test [3] was “No inhibition was observed”. For the same molecule, the “Inhibition of chymotrypsin at 25 µM (in words)” value in [4] is “No inhibition was observed”. In addition, the “Inhibition of cathepsin L at 25 µM (in words)” value (from here on “Inhibition of cathepsin L”) in test [5] was “No inhibition was observed”. The “Inhibition of trypsin at 25 µM (in words)” value in test [6] is on record as “No inhibition was observed”.

With `CC(C)C[C@@H]1NC(=O)[C@@H](NC(=O)CN)Cc2ccc(O)c(c2)-c2cc(ccc2O)C[C@@H](C(=O)N[C@@H](C)C(=O)C(=O)O)NC1=O` [desmethylaminopyruvatide A], the IC50 in test [1] (100 mM sodium phosphate pH 6.0, 1.33 mM EDTA, 2 mM DTT, 30 °C, 15 min preincubation at room temperature, fluorescence, readings every 60 s for 1 h, meaning of ± and n not given, read-out: IC50, inhibition of cathepsin B) was determined as 0.5 nM; in test [3], 0.3 nM; in [5] (50 mM sodium acetate pH 5.5, 2.5 mM EDTA, 2.5 mM DTT, 30 °C, 15 min preincubation at room temperature, fluorescence, meaning of ± and n not given, read-out: IC50, inhibition of cathepsin L), 0.6 nM. For the same molecule, the “Inhibition of SARS CoV-2 Mpro (in words)” value in test [2] was “No inhibition”. In addition, the “Protease inhibition, potency in words” value in test [7] (Cys proteases / select proteases) is “nanomolar activity against Cys‐proteases; also recorded: subnanomolar inhibitory activity against clinically relevant Cys proteases”. In addition, the “Specificity (in words)” value in [7] (cathepsin L, cathepsin B, papain versus trypsin, chymotrypsin, Mpro) is recorded as “specificity towards the papain family of Cys proteases”. In addition, the “Inhibition of chymotrypsin (in words)” value in [4] (test concentration not given) is given as “No inhibition”. In addition, in test [6] (test concentration not given), the “Inhibition of trypsin (in words)” value was “No inhibition”.

Turning to “GYWYD (sidechain bridge or staple) [L7W isomer-2]”, in test [1], the “Inhibition of cathepsin B” value is recorded as “No inhibition was observed”. Further, in test [2], the “Inhibition of SARS CoV-2 Mpro at 25 µM (in words)” value is “No inhibition was observed”. Besides, the “Inhibition of papain at 25 µM (in words)” value in [3] is on record as “No inhibition was observed”. In addition, the “Inhibition of chymotrypsin at 25 µM (in words)” value in test [4] is reported as “No inhibition was observed”. The “Inhibition of ACE at 25 µM (in words)” value in test [8] is “weak inhibition”. Moreover, in test [8] (IC50 not determined), the “Inhibition of ACE at 25 µM” value is recorded as around 40%. Besides, the “Inhibition of cathepsin L” value in test [5] was “No inhibition was observed”. Besides, the “Inhibition of trypsin at 25 µM (in words)” value in test [6] is listed as “No inhibition was observed”.

`NCC(=O)N[C@H]1Cc2ccc(O)c(c2)Oc2ccc(cc2)C[C@@H](C(=O)N[C@@H](CC(=O)O)C(=O)O)NC(=O)[C@H](Cc2ccc(O)cc2)NC1=O` (single isomer, unassigned) [L7Y isomer-2]: the IC50 in test [3] is 11700 nM.

Take fMRMGEGYLYD [ApyAct]: the “Conversion of substrate by ApyO” value in [9] was around 70%.

Consider “GWLYD (sidechain bridge or staple) [Y6W]”, for which the “Inhibition of cathepsin B” value in test [1] is recorded as “No inhibition was observed”. Moreover, in test [2], the “Inhibition of SARS CoV-2 Mpro at 25 µM (in words)” value is given as “No inhibition was observed”. Besides, the “Inhibition of papain at 25 µM (in words)” value in [3] is “No inhibition was observed”. In addition, the “Inhibition of chymotrypsin at 25 µM (in words)” value in [4] was “No inhibition was observed”. Also, the “Inhibition of cathepsin L” value in [5] was “No inhibition was observed”. Moreover, the “Inhibition of trypsin at 25 µM (in words)” value in [6] is given as “No inhibition was observed”.

In the case of “N‐terminally acetylated‐GRMGEGYLYD [Ac-ApyAct]”, in test [10], the Michaelis constant (Km) is 80 ± 7 µM; the kcat is 1.63 and 1.63 ± 0.04.

Take fMGEGYLYD: the “Modification by ApyO (in words)” value in [9] is given as “did not result in product formation”.

Usually IC50 stands for the concentration needed to halve the response being measured. By Km is commonly meant the concentration of substrate that gives half-maximal velocity.
